What was measured:
B16 cells = experiment: In vitro cytotoxicity, XTT assay, B16 cells; format: cell-based; details: 48 h
Experimental: B16 or HeLa cells were plated at a density of 5×10^3 cells per well in D10 media in 96-well plates and grown for 6 h. The cells were then exposed to a series of concentrations of Dox-loaded CMLs, ULs or DLLs for 48 h, and the cytotoxicity of Dox-liposomes was assessed using the Cell Proliferation Kit II (XTT assay) from Roche Applied Science, according to the manufacturer's instructions.

cardiac tissue = details: 20 mg/kg Dox equivalent, single i.v.
Source text: FIGS. 9A-B. In vivo toxicity and tolerability. […] (A) Average mouse weight loss over time. […] Error bars represent the standard deviation of the mean; n=2 for each treatment group (*p<0.05, ***p<0.005).

[1] = Maximum tolerated dose study; details: for body weight: 8 days
Source text: The mice were weighed and monitored daily for 8 days after injection.

Question: Which “half-maximal response (EC50)” value (B16 cells) does the source give for `COc1cccc2c1C(=O)c1c(O)c3c(c(O)c1C2=O)C[C@@](O)(C(=O)CO)C[C@@H]3O[C@H]1C[C@H](N)[C@H](O)[C@H](C)O1` [free Dox, doxorubicin] here?
Answer: similar

Question: What about the “histopathologic changes in cardiac tissue” value (cardiac tissue) of the same compound?
Answer: severe damage of cardiac tissue

Question: What about the body weight ([1]; 20 mg/kg Dox equivalent) of the same compound?
Answer: significant loss of body weight

Question: What about the body weight ([1]; 40 mg/kg Dox equivalent) of the same compound?
Answer: significant loss of body weight

Question: What about the “general health / signs of toxicity” value ([1]; 40 mg/kg free Dox, CML-Dox groups) of the same compound?
Answer: obvious signs of toxicity

Question: And the maximum tolerated dose ([1]; single intravenous administration, C57BL/6 mice)?
Answer: < 20 mg/kg
